The values below come from US20210300924A1, “5-[6-[[3-(4,5,6,7-TETRAHYDROPYRAZOLO[4,3-C]PYRIDIN-1-YL)AZETIDIN-1-YL]METHYL]MORPHOLIN-4-YL]QUINOLINE-8-CARBONITRILE DERIVATIVES AND SIMILAR COMPOUNDS AS TLR7-9 ANTAGONISTS FOR TREATING SYSTEMIC LUPUS ERYTHEMATOSUS” (Hoffmann-La Roche Inc., priority 2018, published 2021).

For one series, the target named is T1, human TLR7 (Homo sapiens, UniProt Q9NYK1).
T1 construct: host or cells: HEK293 (HEK-Blue hTLR7)
T1 sequence (Q9NYK1 27-1049): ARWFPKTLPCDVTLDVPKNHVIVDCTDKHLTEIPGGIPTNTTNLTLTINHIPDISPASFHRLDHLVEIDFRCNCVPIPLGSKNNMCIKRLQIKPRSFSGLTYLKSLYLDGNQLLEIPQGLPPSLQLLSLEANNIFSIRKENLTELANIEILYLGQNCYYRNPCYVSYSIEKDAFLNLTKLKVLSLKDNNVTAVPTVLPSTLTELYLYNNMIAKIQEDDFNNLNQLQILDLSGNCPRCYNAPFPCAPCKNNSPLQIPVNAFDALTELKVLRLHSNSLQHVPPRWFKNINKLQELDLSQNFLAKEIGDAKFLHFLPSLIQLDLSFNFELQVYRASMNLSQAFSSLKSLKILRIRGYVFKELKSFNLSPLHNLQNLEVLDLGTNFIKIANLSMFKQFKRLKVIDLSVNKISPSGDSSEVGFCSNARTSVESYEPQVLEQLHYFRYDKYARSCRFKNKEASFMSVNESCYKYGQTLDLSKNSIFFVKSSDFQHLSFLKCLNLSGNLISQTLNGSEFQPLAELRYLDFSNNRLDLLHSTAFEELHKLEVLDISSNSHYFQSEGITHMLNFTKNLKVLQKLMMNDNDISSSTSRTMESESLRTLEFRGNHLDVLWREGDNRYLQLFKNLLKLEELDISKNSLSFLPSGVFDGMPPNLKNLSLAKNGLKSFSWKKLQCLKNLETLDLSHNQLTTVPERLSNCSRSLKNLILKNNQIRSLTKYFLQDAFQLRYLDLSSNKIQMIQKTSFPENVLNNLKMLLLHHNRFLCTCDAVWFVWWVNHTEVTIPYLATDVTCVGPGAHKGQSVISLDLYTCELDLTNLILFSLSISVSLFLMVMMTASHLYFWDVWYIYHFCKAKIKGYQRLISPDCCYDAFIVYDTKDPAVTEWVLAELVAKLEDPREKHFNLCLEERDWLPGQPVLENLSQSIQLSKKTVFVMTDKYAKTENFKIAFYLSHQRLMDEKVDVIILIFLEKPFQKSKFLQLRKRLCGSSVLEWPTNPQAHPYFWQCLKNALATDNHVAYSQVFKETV
The experiment in a line: HEK293-Blue-hTLR-7 cells assay. The series is classed as cell-based. Particulars: HEK293-Blue-hTLR7 cells, R848 stimulation, 20 hrs, SEAP reporter; read-out: HEK/hTLR7 IC50. From the text: HEK293-Blue-hTLR-7 cells assay:
A stable HEK293-Blue-hTLR-7 cell line was purchased from InvivoGen (Cat. #: hkb-htlr7, San Diego, Calif., USA). These cells were originally designed for studying the stimulation of human TLR7 by monitoring the activation of NF-κB. A SEAP (secreted embryonic alkaline phosphatase) reporter gene was placed under the control of the IFN-β minimal promoter fused to five NF-κB and AP-1-binding sites. The SEAP was induced by activating NF-κB and AP-1 via stimulating HEK-Blue hTLR7 cells with TLR7 ligands. Therefore the reporter expression was declined by TLR7 antagonist under the stimulation of a ligand, such as R848 (Resiquimod), for incubation of 20 hrs. The cell culture supernatant SEAP reporter activity was determined using QUANTI-Blue™ kit (Cat. #: rep-qb1, Invivogen, San Diego, Ca, USA) at a wavelength of 640 nm, a detection medium that turns purple or blue in the presence of alkaline phosphatase.
HEK293-Blue-hTLR7 cells were incubated at a density of 250,000-450,000 cells/mL in a volume of 170 μL in a 96-well plate in Dulbecco's Modified Eagle's medium (DMEM) containing 4.5 g/L glucose, 50 U/mL penicillin, […], […], 2 mM L-glutamine, 10% (v/v) heat-inactivated fetal bovine serum with addition of 20 μL test compound in a serial dilution in the presence of final DMSO at 1% and 10 μL of 20 uM R848 in above DMEM, perform incubation under 37° C. in a CO2 incubator for 20 hrs. Then 20 μL of the supernatant from each well was incubated with 180 μL Quanti-blue substrate solution at 37° C. for 2 hrs and the absorbance was read at 620˜655 nm using a spectrophotometer. The signaling pathway that TLR7 activation leads to downstream NF-κB activation has been widely accepted, and therefore similar reporter assay was modified for evaluating TLR7 antagonist.

The target in the next series is T2, CYP2D6 (Homo sapiens, UniProt P10635).
T2 construct: tissue BD-Gentest 452117; host or cells: human liver microsomes
T2 sequence (P10635 whole entry): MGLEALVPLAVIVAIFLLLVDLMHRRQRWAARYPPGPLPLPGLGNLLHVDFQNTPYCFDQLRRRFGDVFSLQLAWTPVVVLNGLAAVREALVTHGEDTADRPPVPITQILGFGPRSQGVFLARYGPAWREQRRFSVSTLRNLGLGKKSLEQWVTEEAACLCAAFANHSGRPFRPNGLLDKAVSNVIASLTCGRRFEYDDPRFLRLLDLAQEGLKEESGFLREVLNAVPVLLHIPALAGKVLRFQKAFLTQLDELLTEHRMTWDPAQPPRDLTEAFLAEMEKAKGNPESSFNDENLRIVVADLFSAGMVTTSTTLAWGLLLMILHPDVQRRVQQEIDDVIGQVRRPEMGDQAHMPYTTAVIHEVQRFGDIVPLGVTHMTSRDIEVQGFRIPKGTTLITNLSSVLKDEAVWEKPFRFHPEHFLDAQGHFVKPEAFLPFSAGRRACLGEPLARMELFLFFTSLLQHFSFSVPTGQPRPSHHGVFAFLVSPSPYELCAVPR
The series is described as follows: CYP inhibition assay in human liver microsome. To be noted: human liver microsomes, probe dextromethorphan, dextromethorphan substrate, percentage inhibition <0: not or weak inhibitor, read-out: CYP 2D6 inhibition % @ 10 μM. The series is classed as in vitro ADME. Here is the method:
This is a high throughput screening assay used for assessment of reversible inhibition of CYP2D6 activity of test compounds in human liver microsome (HLM) in early discovery stage.
10 mM DMSO stock solutions of test compounds were diluted in DMSO to generate 2 mM intermediate stock solution. 250 nL of intermediate stock solution were transferred in duplicate into 3 separate 384 well microtitre plates (assay-ready plates). A mixture of HLM and each substrate was made up. 45 μL of HLM substrate mix was then transferred to each well of an assay ready plate and mixed. The negative (solvent) and positive control (standard inhibitor for CYP 2D6) were included in each assay ready plate. The assay ready plate was warmed to 37° C. in an incubator over 10 minutes. 5 μL pre-warmed NADPH regenerating system was added to each incubation well to start the reaction. Final incubation volume was 50 μL. The assay plate then was placed back in the 37° C. incubator. After 10 minutes incubation, incubates were quenched by addition of 50 μL 100% acetonitrile containing internal standards (20 ng/mL D3-Dextrorphan). The supernatants were collected for RapidFire/MS/MS analysis.
RapidFire online solid phase extraction/sample injection system (Agilent) coupled with API4000 triple quadrupole mass spectrometer (AB Sciex) were used for sample analysis. The mobile phase composed of acetonitrile and water supplemented with 0.1% formic acid. A C4 solid phase extraction cartridge is used for sample separation. MS detection is achieved in positive ion MRM mode.
Peak areas for substrate, metabolite and internal standard are determined using the RapidFire integrator software (version 3.6.12009.12296). Peak area ratios (PAR) of metabolite and internal standard (stable-labelled metabolite) are then calculated. The measurement window for each experiment is then defined:
PAR (0% activity)=average PAR for all incubations containing concentrated inhibitor;
Par (100% activity)=average PAR for all incubations containing no inhibitor (DMSO controls);
% Activity (test inhibitor)=
[PAR(test inhibitor)−PAR(0% activity)]/[PAR(100% activity)−PAR(0% activity)]; % Inhibition (test inhibitor)=100−% Activity (test inhibitor).

pIC50: −log10 of the molar value. A value given as a limit tells only on which side of the number the result lay.

For the molecule `C[C@@H]1CN(c2ccc(C#N)c3ncccc23)C[C@H](CN2CC(n3cc4c(n3)[C@H](C)CNC4)C2)O1` (single isomer, unassigned) [Example 25], the pIC50 at human TLR7 was 8.40. For the molecule `C[C@@H]1CN(c2ccc(C#N)c3ncccc23)C[C@H](CN2CC(n3cc4c(n3)[C@@H](C)CNC4)C2)O1` (single isomer, unassigned) [Example 26], the pIC50 at human TLR7 was 8.22. In addition, the inhibition (commonly the change of the read-out against control, counted positive when it falls) at 10 min, 10 µM at CYP2D6 was 20%. Regarding `C[C@@H]1CN(c2ccc(C#N)c3ncccc23)C[C@H](CN2CC(n3ncc4c3CN[C@@H](C)C4)C2)O1` (single isomer, unassigned) [Example 27], the pIC50 on human TLR7 is 8.22. The inhibition at 10 min, 10 µM on CYP2D6 was found to be 22%. Take `C[C@@H]1Cc2cnn(C3CN(C[C@H]4CN(c5ccc(C#N)c6ncccc56)C[C@@H](C)O4)C3)c2CN1` (single isomer, unassigned) [Example 28]: the pIC50 on human TLR7 was 8.30. In addition, on CYP2D6, the inhibition at 10 min, 10 µM came out at 0.5%. On to `C[C@@H]1CN(c2ccc(C#N)c3ncccc23)C[C@H](CN2CC(n3cc4c(n3)CN[C@@H](C)C4)C2)O1` (single isomer, unassigned) [Example 29], for which the pIC50 at human TLR7 is 8.10. For the molecule `C[C@@H]1Cc2cn(C3CN(C[C@H]4CN(c5ccc(C#N)c6ncccc56)C[C@@H](C)O4)C3)nc2CN1` (single isomer, unassigned) [Example 30], the pIC50 on human TLR7 is 8.30. In addition, at CYP2D6, the inhibition at 10 min, 10 µM was 3.5%. With `C[C@@H]1CN(c2ccc(C#N)c3ncccc23)C[C@H](CN2CC(n3ncc4c3[C@@H](C)NCC4)C2)O1` (single isomer, unassigned) [Example 31], the pIC50 at human TLR7 is over 8.52. The inhibition at 10 min, 10 µM at CYP2D6 was -3.5%. On the same counts, the results for `C[C@@H]1CN(c2ccc(C#N)c3ncccc23)C[C@H](CN2CC(n3ncc4c3[C@H](C)NCC4)C2)O1` (single isomer, unassigned) [Example 32] are over 8.52 and 11%. With `C[C@@H]1CN(c2ccc(C#N)c3ncccc23)C[C@H](CN2CC(n3cc4c(n3)[C@@H](C)NCC4)C2)O1` (single isomer, unassigned) [Example 33], the pIC50 at human TLR7 is 8.15.

Consider `C[C@@H]1CN(c2ccc(C#N)c3ncccc23)C[C@H](CN2CC(n3cc4c(n3)[C@H](C)NCC4)C2)O1` (single isomer, unassigned) [Example 34], for which the pIC50 on human TLR7 is 8.22. The inhibition at 10 min, 10 µM at CYP2D6 is -11.5%.

As for `C[C@@H]1CN(c2ccc(C#N)c3ncccc23)C[C@H](CN2CC(n3ncc4c3CCNC4)C2)O1` [Example 1, 5-[(2R,6S)-2-methyl-6-[[3-(4,5,6,7-tetrahydropyrazolo[4,3-c]pyridin-1-yl)azetidin-1-yl]methyl]morpholin-4-yl]quinoline-8-carbonitrile], at human TLR7, the pIC50 is 8.00. In the case of `C[C@@H]1CN(c2ccc(C#N)c3ncccc23)C[C@H](CN2CC(n3cc4c(n3)CCNC4)C2)O1` [Example 2, 5-[(2R,6S)-2-methyl-6-[[3-(4,5,6,7-tetrahydropyrazolo[4,3-c]pyridin-2-yl)azetidin-1-yl]methyl]morpholin-4-yl]quinoline-8-carbonitrile], the pIC50 on human TLR7 is 7.60. The inhibition at 10 min, 10 µM on CYP2D6 stood at 1%.

`C[C@@H]1CN(c2ccc(C#N)c3ncccc23)C[C@H](CN2CC(n3ncc4c3CNCC4)C2)O1` [Example 3, 5-[(2R,6S)-2-methyl-6-[[3-(4,5,6,7-tetrahydropyrazolo[3,4-c]pyridin-1-yl)azetidin-1-yl]methyl]morpholin-4-yl]quinoline-8-carbonitrile]: at human TLR7, the pIC50 was 8.52. For the same molecule, the inhibition at 10 min, 10 µM on CYP2D6 was found to be 10.5%.

For `C[C@@H]1CN(c2ccc(C#N)c3ncccc23)C[C@H](CN2CC(n3ncc4c3CNC4)C2)O1` [Example 10, 5-[(2S,6R)-2-[[3-(5,6-dihydro-4H-pyrrolo[3,4-c]pyrazol-1-yl)azetidin-1-yl]methyl]-6-methyl-morpholin-4-yl]quinoline-8-carbonitrile], at human TLR7, the pIC50 is 7.80.

Take `Cc1nn(C2CN(C[C@H]3CN(c4ccc(C#N)c5ncccc45)C[C@@H](C)O3)C2)c2c1CN(C)CC2` [Example 14, 5-[(2S,6R)-2-[[3-(3,5-dimethyl-6,7-dihydro-4H-pyrazolo[4,3-c]pyridin-1-yl)azetidin-1-yl]methyl]-6-methyl-morpholin-4-yl]quinoline-8-carbonitrile]: the pIC50 at human TLR7 was 7.59.

Regarding `C[C@@H]1CN(c2ccc(C#N)c3ncccc23)C[C@H](CN2CC(n3cc4c(n3)C(C)(C)CNC4)C2)O1` [Example 24, 5-[(2S,6R)-2-[[3-(7,7-dimethyl-5,6-dihydro-4H-pyrazolo[4,3-c]pyridin-2-yl)azetidin-1-yl]methyl]-6-methyl-morpholin-4-yl]quinoline-8-carbonitrile], the pIC50 on human TLR7 is 8.40. On the same count and under the same terms, the result for `C[C@@H]1CN(c2ccc(C#N)c3ncccc23)C[C@H](CN2CCC(n3ncc4c3CCNC4)CC2)O1` [Example 35, 5-[(2R,6S)-2-methyl-6-[[4-(4,5,6,7-tetrahydropyrazolo[4,3-c]pyridin-1-yl)-1-piperidyl]methyl]morpholin-4-yl]quinoline-8-carbonitrile] reads 8.30; that for `Cc1c2c(nn1C1CN(C[C@H]3CN(c4ccc(C#N)c5ncccc45)C[C@@H](C)O3)C1)CNCC2` [Example 43, 5-[(2R,6S)-2-methyl-6-[[3-(3-methyl-4,5,6,7-tetrahydropyrazolo[3,4-c]pyridin-2-yl)azetidin-1-yl]methyl]morpholin-4-yl]quinoline-8-carbonitrile], 7.77.
